Patent publication US10662204B2 (PFIZER INC., priority 2018, dated 2020)

Legend:
[1] = biological target: T1, GDP-loaded KRAS (1-169) G12C, C51S, C80L, C118S (Homo sapiens, UniProt P01116, C118S/C51S/C80L/G12C); assay: Mass Spectrometry Reactivity Assay (MSRA): covalent adduct of compound and KRAS G12C, Percent Modification; format: binding; settings: for MSRA (% modification) 10 μM 0.50 hr / MSRA (% modification) 10 μM 0.25 hr: 10 μM compound
T1 construct: GDP-loaded KRAS (1-169) G12C, C51S, C80L, C118S
In short: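 GDP-loaded KRAS(1-169) G12C/C51S/C80L/C118S at 5 μM in 25 mM Hepes pH 7.5, 200 mM NaCl, 5% glycerol incubated at RT with compound (typically 5 or 10 μM final, 1% DMSO). Quenched in formic acid at 1-60 min; intact-protein LC-TOF MS gives % modification = modified/(modified+unmodified).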

KRAS G12C = KRAS G12C (Homo sapiens, UniProt P01116, G12C); assay: Cell Activity Assay: accumulation of GDP-bound KRAS G12C in MIAPaCa-2 cells (Raf-1 RBD capture, MSD readout); format: cell-based; parameters: endogenous in cells; host or cells: MIAPaCa-2; settings: 6 hours, assay limit is 30.00
In short: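 MIAPaCa-2 cells exposed 6 h at 37 °C to 3-fold compound dilutions (0.3% DMSO final), then lysed. Active GTP-KRAS captured on Raf-1 RBD-coated plates, detected with anti-pan-Ras and SULFO-TAG secondary by MSD electrochemiluminescence. Signal normalized to DMSO and maximum inhibition; IC50 from 4-parameter fit.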

| Compound | MSRA (% modification) 10 μM 0.50 hr [1] | IC50 (KRAS G12C) | MSRA (% modification) 5.0 μM 0.017 hr ([1]; 5.0 μM compound) | MSRA (% modification) 5.0 μM 0.25 hr ([1]; 5.0 μM compound, 0.25 hr) | MSRA (% modification) 10 μM 0.25 hr ([1]; 0.25 hr) |
| --- | --- | --- | --- | --- | --- |
| C=CC(=O)N1CCN(c2ncnc3c(Oc4c(C)c(Cl)cc5[nH]ncc45)nc(Cl)cc23)CC1 [Example 31A, 1-(4-{6-chloro-8-[(6-chloro-5-methyl-1H-indazol-4-yl)oxy]pyrido[3,4-d]pyrimidin-4-yl}piperazin-1-yl)prop-2-en-1-one] | 79% | 0.171 µM | – | – | – |
| C=CC(=O)N1CCN(c2nc(Oc3cccc4c3CCN(CC)C4)nc3c(Oc4c(C)ccc5[nH]ncc45)nccc23)CC1 [Example 31I, 1-(4-{2-[(2-ethyl-1,2,3,4-tetrahydro-isoquinolin-5-yl)oxy]-8-[(5-methyl-1H-indazol-4-yl)oxy]pyrido [3,4-d]pyrimidin-4-yl}piperazin-1-yl)prop-2-en-1-one] | – | 0.041 µM | 31% | – | – |
| C=CC(=O)N1CCN(c2ncnc3c(Oc4c(Cl)c(F)cc5[nH]ncc45)nc(C#N)cc23)CC1 [Example 32A, 4-(4-acryloylpiperazin-1-yl)-8-[(5-chloro-6-fluoro-1H-indazol-4-yl)oxy]pyrido[3,4-d]pyrimidine-6-carbonitrile] | 74% | 0.681 µM | – | – | – |
| C=CC(=O)N1CCN(c2ncnc3c(Oc4c(C)c(Cl)cc5[nH]ncc45)nc(C#N)cc23)C[C@@H]1C [Example 33A, 4-[(3S)-4-acryloyl-3-methylpiperazin-1-yl]-8-[(6-chloro-5-methyl-1H-indazol-4-yl)oxy]pyrido[3,4-d]pyrimidine-6-carbonitrile] | 34% | > 30 µM | – | – | – |
| C=CC(=O)N1CCN(c2nc(O[C@@H]3CN(C)C[C@H]3OC)nc3c(Oc4c(Cl)c(F)cc5[nH]ncc45)nccc23)[C@@H](C)C1 [Example 33I, 1-[(3S)-4-(8-[(5-chloro-6-fluoro-1H-indazol-4-yl)oxy]-2-{[(3R,4R)-4-methoxy-1-methyl-pyrrolidin-3-yl]oxy}pyrido [3,4-d]pyrimidin-4-yl)-3-methyl-piperazin-1-yl]prop-2-en-1-one] | – | 0.039 µM | 74% | – | – |
| C=CC(=O)N1CCN(c2ncnc3c(Oc4c(F)c(Cl)cc5[nH]ncc45)nc(Cl)cc23)CC1 [Example 34A, 1-(4-{6-chloro-8-[(6-chloro-5-fluoro-1H-indazol-4-yl)oxy]pyrido[3,4-d]pyrimidin-4-yl}piperazin-1-yl)prop-2-en-1-one] | – | 1.29 µM | – | 19% | 47% |
| C=CC(=O)N1CCN(c2nc(O[C@@H]3CN(C)C[C@H]3OC)nc3c(Oc4c(Cl)c(F)cc5[nH]ncc45)nccc23)[C@H](C)C1 [Example 34I, 1-[(3R)-4-(8-[(5-chloro-6-fluoro-1H-indazol-4-yl)oxy]-2-{[(3R,4R)-4-methoxy-1-methyl-pyrrolidin-3-yl]oxy}pyrido [3,4-d]pyrimidin-4-yl)-3-methyl-piperazin-1-yl]prop-2-en-1-one] | – | 0.935 µM | 52% | – | – |
| C=CC(=O)N1C[C@H](C)N(c2ncnc3c(Oc4c(Cl)c(F)cc5[nH]ncc45)nc(Cl)cc23)C[C@H]1C [Example 35A, 1-[(2R,5S)-4-{6-chloro-8-[(5-chloro-6-fluoro-1H-indazol-4-yl)oxy]pyrido[3,4-d]pyrimidin-4-yl}-2,5-dimethylpiperazin-1-yl]prop-2-en-1-one] | – | 4.26 µM | – | – | 64% |
| C=CC(=O)N1CCN(c2nc(O[C@@H]3CN(C)C[C@H]3OC)nc3c(Oc4c(C)ccc5[nH]ncc45)nc(Cl)cc23)CC1 [Example 35G, 1-[4-(6-chloro-2-{[(3R,4R)-4-methoxy-1-methylpyrrolidin-3-yl]oxy}-8-[(5-methyl-1H-indazol-4-yl)oxy]pyrido[3,4-d]pyrimidin-4-yl)piperazin-1-yl]prop-2-en-1-one] | – | 0.027 µM | 75% | – | – |
| C=CC(=O)N1CCN(c2nc(O[C@@H]3CN(C)C[C@H]3OC)nc3c(Oc4c(Cl)c(F)cc5[nH]ncc45)nccc23)C[C@H]1C [Example 35I, 1-[(2R)-4-(8-[(5-chloro-6-fluoro-1H-indazol-4-yl)oxy]-2-{[(3R,4R)-4-methoxy-1-methyl-pyrrolidin-3-yl]oxy}pyrido [3,4-d]pyrimidin-4-yl)-2-methyl-piperazin-1-yl]prop-2-en-1-one] | – | 0.155 µM | 24% | – | – |
| C=CC(=O)N1CCN(c2ncnc3c(Oc4c(Cl)c(F)cc5[nH]ncc45)nc(Cl)cc23)C[C@@H]1C [Example 36A, 1-[(2S)-4-{6-chloro-8-[(5-chloro-6-fluoro-1H-indazol-4-yl)oxy]pyrido[3,4-d]pyrimidin-4-yl}-2-methylpiperazin-1-yl]prop-2-en-1-one] | – | 4.7 µM | – | – | 31% |
| C=CC(=O)N1CCN(c2nc(OC3CN(C)CC34CC4)nc3c(Oc4c(Cl)c(F)cc5[nH]ncc45)nc(Cl)cc23)CC1 (centres unmarked) [Example 36G, 1-(4-{6-chloro-8-[(5-chloro-6-fluoro-1H-indazol-4-yl)oxy]-2-[(5-methyl-5-azaspiro[2.4]heptan-7-yl)oxy]pyrido[3,4-d]pyrimidin-4-yl}piperazin-1-yl)prop-2-en-1-one] | – | 0.109 µM | 35% | – | – |
| C=CC(=O)N1CCN(c2ncnc3c(Oc4c(Cl)c(F)cc5[nH]ncc45)nc(Cl)cc23)C[C@H]1C [Example 37A, 1-[(2R)-4-{6-chloro-8-[(5-chloro-6-fluoro-1H-indazol-4-yl)oxy]pyrido[3,4-d]pyrimidin-4-yl}-2-methylpiperazin-1-yl]prop-2-en-1-one] | – | 0.622 µM | – | – | 63% |
| C=CC(=O)N1CCN(c2nc(O[C@@H]3CN(C)C[C@H]3O)nc3c(Oc4c(Cl)c(F)cc5[nH]ncc45)nc(Cl)cc23)CC1 [Example 37G, 1-[4-(6-chloro-8-[(5-chloro-6-fluoro-1H-indazol-4-yl)oxy]-2-{[(3R,4R)-4-hydroxy-1-methylpyrrolidin-3-yl]oxy}pyrido[3,4-d]pyrimidin-4-yl)piperazin-1-yl]prop-2-en-1-one] | – | 0.338 µM | 37% | – | – |
| C=CC(=O)N1CCN(c2ncnc3c(Oc4c(Cl)c(F)cc5[nH]ncc45)nc(Cl)cc23)[C@@H](CO)C1 [Example 38A, 1-[(3R)-4-{6-chloro-8-[(5-chloro-6-fluoro-1H-indazol-4-yl)oxy]pyrido[3,4-d]pyrimidin-4-yl}-3-(hydroxymethyl)piperazin-1-yl]prop-2-en-1-one] | – | 0.537 µM | – | – | 56% |
| C=CC(=O)N1CCN(c2nc(O[C@@H]3CN(C)C[C@H]3OC)nc3c(Oc4c(Cl)ccc5[nH]ncc45)nc(Cl)cc23)CC1 [Example 38G, 1-[4-(6-chloro-8-[(5-chloro-1H-indazol-4-yl)oxy]-2-{[(3R,4R)-4-methoxy-1-methylpyrrolidin-3-yl]oxy}pyrido[3,4-d]pyrimidin-4-yl)piperazin-1-yl]prop-2-en-1-one] | – | 0.021 µM | 75% | – | – |
| C=CC(=O)N1CCN(c2nc(Oc3cccc4c3CCN(C)C4)nc3c(Oc4c(C)ccc5[nH]ncc45)nccc23)CC1 [Example 38I, 1-(4-{8-[(5-methyl-1H-indazol-4-yl)oxy]-2-[(2-methyl-1,2,3,4-tetrahydro-isoquinolin-5-yl)oxy]pyrido [3,4-d]pyrimidin-4-yl}piperazin-1-yl)prop-2-en-1-one] | – | 0.055 µM | 55% | – | – |
| C=CC(=O)N1CCN(c2ncnc3c(Oc4c(Cl)c(F)cc5[nH]ncc45)nc(Cl)cc23)[C@@H](C)C1 [Example 39A, 1-[(3S)-4-{6-chloro-8-[(5-chloro-6-fluoro-1H-indazol-4-yl)oxy]pyrido[3,4-d]pyrimidin-4-yl}-3-methylpiperazin-1-yl]prop-2-en-1-one] | – | 0.246 µM | – | – | 74% |
| C#CCCN1C[C@@H](OC)[C@H](Oc2nc(N3CCN(C(=O)C=C)CC3)c3cc(Cl)nc(Oc4c(Cl)c(F)cc5[nH]ncc45)c3n2)C1 [Example 39G, 1-[4-(2-{[(3R,4R)-1-(but-3-yn-1-yl)-4-methoxypyrrolidin-3-yl]oxy}-6-chloro-8-[(5-chloro-6-fluoro-1H-indazol-4-yl)oxy]pyrido[3,4-d]pyrimidin-4-yl)piperazin-1-yl]prop-2-en-1-one] | – | 0.014 µM | 76% | – | – |
| C=CC(=O)N1CCN(c2ncnc3c(Oc4c(Cl)c(F)cc5[nH]ncc45)nc(Cl)cc23)[C@H](C)C1 [Example 40A, 1-[(3R)-4-{6-chloro-8-[(5-chloro-6-fluoro-1H-indazol-4-yl)oxy]pyrido[3,4-d]pyrimidin-4-yl}-3-methylpiperazin-1-yl]prop-2-en-1-one] | – | 20.9 µM | – | – | 6% |
